Test results reported in US11331299B2, “Medicinal use of serrulatane diterpenes” (The University of Sydney, priority 2016, dated 2022).
Where two headings read alike, the source gives them in different places.

Tests used:
ATAD2B (h) bromodomain = biological target: T1, ATAD2B (h) bromodomain (Homo sapiens, UniProt Q9ULI0); test: Epigenetic binding assay, Bromodomain; details: 10 μM; read-out: % Inhibition of Control Specific Binding
T1 construct: ATAD2B bromodomain; host or cells: E. coli
T1 sequence (Q9ULI0 951-1066 limits assumed): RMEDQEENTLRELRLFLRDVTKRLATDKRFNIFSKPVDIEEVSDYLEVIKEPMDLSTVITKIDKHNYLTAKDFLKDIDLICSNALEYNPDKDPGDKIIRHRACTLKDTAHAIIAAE

BRPF1-1 (h) bromodomain = biological target: T2, BRPF1-1 (h) bromodomain (Homo sapiens, UniProt P55201); test: Epigenetic binding assay, Bromodomain; details: 10 μM; read-out: % Inhibition of Control Specific Binding
T2 construct: Bromodomain
T2 sequence (P55201 628-732 limits assumed): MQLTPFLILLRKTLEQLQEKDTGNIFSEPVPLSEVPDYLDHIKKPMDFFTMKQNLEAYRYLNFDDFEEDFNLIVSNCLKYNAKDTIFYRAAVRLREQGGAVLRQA

BRDT(1) (h) bromodomain = biological target: T3, BRDT(1) (h) bromodomain (Homo sapiens, UniProt Q58F21); test: Epigenetic binding assay, Bromodomain; details: read-out: % Inhibition of Control Specific Binding
T3 construct: Bromodomain; Eurofins CEREP (France), contract laboratory

L3MBTL1 MBT domain = test: Epigenetic binding assay, MBT domain; details: 10 μM
H3K27 me3 = test: Cell-based detection methyl modifications; details: read-out: % Inhibition of Control Values
H3K36 me2 = test: Cell-based detection methyl modifications; details: read-out: % Inhibition of Control Values
JMJD2D (h) = biological target: T4, JMJD2D (h) (Homo sapiens, UniProt Q6B0I6); test: Epigenetic enzyme assay, Demethylases (KDMs); format: biochemical; details: read-out: % Inhibition of Control Values
T4 sequence (Q6B0I6 1-523): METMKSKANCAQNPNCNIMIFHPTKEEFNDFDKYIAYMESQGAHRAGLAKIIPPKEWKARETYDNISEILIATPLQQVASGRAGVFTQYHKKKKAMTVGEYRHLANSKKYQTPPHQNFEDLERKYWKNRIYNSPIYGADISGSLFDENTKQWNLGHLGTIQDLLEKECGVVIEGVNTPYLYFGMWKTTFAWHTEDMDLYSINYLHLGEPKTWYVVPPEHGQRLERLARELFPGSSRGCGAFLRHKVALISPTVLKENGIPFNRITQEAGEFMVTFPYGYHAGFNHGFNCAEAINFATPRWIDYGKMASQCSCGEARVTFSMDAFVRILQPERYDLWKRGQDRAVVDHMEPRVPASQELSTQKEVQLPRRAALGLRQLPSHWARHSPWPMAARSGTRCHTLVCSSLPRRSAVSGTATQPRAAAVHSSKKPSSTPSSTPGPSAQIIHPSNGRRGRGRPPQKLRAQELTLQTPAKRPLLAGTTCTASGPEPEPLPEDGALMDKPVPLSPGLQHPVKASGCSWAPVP

JMJD3 (h) = JMJD3 (h) (Homo sapiens, UniProt O15054); test: Epigenetic enzyme assay, Demethylases (KDMs); format: biochemical; details: for inhibition at 10 µM: read-out: % Inhibition of Control Values
MYST3(h) = MYST3(h) (Homo sapiens, UniProt Q92794); test: Epigenetic enzyme assay, Histone acetyltransferases (HATs); format: biochemical; details: read-out: % Inhibition of Control Values
HDAC4 (h) = HDAC4 (h) (Homo sapiens, UniProt P56524); test: Epigenetic enzyme assay, Histone deacetylase (HDACs); format: biochemical; details: read-out: % Inhibition of Control Values
PRDM9 (h) = PRDM9 (h) (Homo sapiens, UniProt Q9NQV7); test: Epigenetic enzyme assay, Methyltransferases (MTs); format: biochemical; details: for inhibition at 10 µM: read-out: % Inhibition of Control Values
SUV4-20H2 (h) = SUV4-20H2 (h) (Homo sapiens, UniProt Q86Y97); test: Epigenetic enzyme assay, Methyltransferases (MTs); format: biochemical; details: for inhibition at 10 µM: read-out: % Inhibition of Control Values
[1] = biological target: PKBbeta/AKT2(h) (substrate histone H3 full length) (Homo sapiens, UniProt P31751); test: Epigenetic enzyme assay, Kinases; format: biochemical; details: read-out: % Inhibition of Control Values
Chemokine CCR1 = biological target: T5, Chemokine CCR1 (Homo sapiens, UniProt P32246); test: Chemokine CCR1 radio ligand binding; details: assay year 2015, read-out: % Control Response
T5 construct: expressed in transfected cells; host or cells: Chem-2 cells
T5 sequence (P32246 1-355): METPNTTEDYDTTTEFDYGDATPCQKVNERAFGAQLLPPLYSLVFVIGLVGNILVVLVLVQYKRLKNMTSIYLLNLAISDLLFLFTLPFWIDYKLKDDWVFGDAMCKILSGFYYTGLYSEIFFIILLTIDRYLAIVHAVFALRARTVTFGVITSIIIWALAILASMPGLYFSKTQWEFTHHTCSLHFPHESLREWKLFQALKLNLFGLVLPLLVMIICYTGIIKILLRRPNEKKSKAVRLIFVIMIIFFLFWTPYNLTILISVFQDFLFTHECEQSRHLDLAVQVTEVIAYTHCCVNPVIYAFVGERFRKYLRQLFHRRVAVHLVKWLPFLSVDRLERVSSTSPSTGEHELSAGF
Protocol: (§1) The in vitro pharmacological studies were conducted by Eurofins PanLab (Taiwan) using the parameters shown in Table 13 with respect to appropriate literature references.

Deacetylase, Histone 1 = biological target: T6, Deacetylase, Histone 1 (Homo sapiens, UniProt Q13547); test: Deacetylase, Histone 1 (PanLab); format: biochemical
T6 construct: host or cells: Insect Sf9 cells
Protocol: as §1

HMG-CoA Reductase = biological target: T7, HMG-CoA Reductase (Homo sapiens, UniProt P04035); test: HMG-CoA Reductase; format: biochemical; details: assay year 2015, read-out: % Control Response
T7 construct: host or cells: E. coli
T7 sequence (P04035 426-888 limits assumed): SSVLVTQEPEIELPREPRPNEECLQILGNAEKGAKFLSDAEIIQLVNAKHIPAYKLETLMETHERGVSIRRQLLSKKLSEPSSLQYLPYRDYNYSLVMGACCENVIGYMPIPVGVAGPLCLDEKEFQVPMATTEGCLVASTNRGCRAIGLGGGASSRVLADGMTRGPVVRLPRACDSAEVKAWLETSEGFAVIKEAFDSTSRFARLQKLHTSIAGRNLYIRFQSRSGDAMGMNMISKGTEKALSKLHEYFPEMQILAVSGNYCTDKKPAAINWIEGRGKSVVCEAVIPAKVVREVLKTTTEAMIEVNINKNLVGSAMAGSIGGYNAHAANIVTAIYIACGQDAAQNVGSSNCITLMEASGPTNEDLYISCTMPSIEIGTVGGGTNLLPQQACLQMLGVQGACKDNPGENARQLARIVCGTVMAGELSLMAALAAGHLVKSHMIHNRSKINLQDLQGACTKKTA
Protocol: as §1

Steroid 5alpha-Reductase = test: Steroid 5α-Reductase; format: biochemical, Wistar Rat; details: 10 μM; assay year 2015
Protocol: as §1

Thioredoxin Reductase = biological target: T8, Thioredoxin Reductase (Escherichia coli, UniProt P0A9P4); test: Thioredoxin Reductase; format: biochemical, E. coli
T8 construct: host or cells: E. coli
Protocol: as §1

[2] = assay year 2014, read-out: % Control Response
[3] = assay year 2015, read-out: % Control Response

Sequence of MYST3(h) (Q92794 whole entry): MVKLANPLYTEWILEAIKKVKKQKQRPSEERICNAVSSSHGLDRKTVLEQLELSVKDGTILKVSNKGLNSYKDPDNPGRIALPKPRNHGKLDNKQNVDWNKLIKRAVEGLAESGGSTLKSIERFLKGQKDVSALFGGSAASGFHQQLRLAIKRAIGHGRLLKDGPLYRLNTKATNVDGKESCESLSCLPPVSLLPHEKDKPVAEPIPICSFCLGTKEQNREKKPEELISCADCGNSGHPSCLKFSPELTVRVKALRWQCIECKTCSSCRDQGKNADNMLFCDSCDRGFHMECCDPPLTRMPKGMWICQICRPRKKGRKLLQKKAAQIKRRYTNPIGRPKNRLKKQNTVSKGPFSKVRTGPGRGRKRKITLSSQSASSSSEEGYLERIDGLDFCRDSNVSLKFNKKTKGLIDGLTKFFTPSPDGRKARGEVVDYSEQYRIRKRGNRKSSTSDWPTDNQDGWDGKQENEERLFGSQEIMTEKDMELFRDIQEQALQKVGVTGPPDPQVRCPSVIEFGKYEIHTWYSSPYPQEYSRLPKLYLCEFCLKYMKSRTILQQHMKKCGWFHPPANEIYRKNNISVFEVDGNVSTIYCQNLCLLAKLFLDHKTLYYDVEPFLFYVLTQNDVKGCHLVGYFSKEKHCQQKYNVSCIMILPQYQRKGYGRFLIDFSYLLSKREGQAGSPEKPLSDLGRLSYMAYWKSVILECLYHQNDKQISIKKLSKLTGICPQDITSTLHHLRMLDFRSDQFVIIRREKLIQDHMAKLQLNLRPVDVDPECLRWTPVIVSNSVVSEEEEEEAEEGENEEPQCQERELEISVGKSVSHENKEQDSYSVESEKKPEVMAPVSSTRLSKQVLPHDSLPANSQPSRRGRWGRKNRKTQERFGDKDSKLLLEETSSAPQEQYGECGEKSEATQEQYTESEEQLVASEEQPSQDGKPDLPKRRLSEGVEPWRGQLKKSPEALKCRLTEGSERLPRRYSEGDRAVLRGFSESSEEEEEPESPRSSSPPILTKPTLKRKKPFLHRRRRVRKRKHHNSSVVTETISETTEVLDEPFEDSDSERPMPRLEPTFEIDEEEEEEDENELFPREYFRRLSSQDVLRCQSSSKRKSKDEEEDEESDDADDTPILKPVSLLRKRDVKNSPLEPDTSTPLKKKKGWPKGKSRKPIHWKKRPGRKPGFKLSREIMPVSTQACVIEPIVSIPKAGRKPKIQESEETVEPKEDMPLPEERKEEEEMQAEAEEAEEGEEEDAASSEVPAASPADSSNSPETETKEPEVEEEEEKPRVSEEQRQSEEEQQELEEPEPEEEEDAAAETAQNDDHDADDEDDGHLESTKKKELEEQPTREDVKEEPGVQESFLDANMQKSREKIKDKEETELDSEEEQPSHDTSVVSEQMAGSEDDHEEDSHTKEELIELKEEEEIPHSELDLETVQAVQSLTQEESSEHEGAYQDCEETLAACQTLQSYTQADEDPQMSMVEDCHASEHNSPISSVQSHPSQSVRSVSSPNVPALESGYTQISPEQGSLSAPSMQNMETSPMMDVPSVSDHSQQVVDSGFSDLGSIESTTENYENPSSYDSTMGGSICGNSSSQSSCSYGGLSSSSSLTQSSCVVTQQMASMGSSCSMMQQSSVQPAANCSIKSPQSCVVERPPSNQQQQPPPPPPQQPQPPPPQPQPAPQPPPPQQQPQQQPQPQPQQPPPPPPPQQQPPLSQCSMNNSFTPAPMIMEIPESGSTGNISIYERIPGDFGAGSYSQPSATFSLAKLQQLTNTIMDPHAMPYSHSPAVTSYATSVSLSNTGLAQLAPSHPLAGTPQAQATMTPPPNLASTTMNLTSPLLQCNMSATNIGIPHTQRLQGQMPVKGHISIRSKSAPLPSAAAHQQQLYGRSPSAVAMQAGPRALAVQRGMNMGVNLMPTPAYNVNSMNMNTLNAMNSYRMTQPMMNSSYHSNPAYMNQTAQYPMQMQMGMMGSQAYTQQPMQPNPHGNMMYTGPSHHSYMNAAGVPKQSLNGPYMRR
Sequence of PRDM9 (h) (Q9NQV7 whole entry): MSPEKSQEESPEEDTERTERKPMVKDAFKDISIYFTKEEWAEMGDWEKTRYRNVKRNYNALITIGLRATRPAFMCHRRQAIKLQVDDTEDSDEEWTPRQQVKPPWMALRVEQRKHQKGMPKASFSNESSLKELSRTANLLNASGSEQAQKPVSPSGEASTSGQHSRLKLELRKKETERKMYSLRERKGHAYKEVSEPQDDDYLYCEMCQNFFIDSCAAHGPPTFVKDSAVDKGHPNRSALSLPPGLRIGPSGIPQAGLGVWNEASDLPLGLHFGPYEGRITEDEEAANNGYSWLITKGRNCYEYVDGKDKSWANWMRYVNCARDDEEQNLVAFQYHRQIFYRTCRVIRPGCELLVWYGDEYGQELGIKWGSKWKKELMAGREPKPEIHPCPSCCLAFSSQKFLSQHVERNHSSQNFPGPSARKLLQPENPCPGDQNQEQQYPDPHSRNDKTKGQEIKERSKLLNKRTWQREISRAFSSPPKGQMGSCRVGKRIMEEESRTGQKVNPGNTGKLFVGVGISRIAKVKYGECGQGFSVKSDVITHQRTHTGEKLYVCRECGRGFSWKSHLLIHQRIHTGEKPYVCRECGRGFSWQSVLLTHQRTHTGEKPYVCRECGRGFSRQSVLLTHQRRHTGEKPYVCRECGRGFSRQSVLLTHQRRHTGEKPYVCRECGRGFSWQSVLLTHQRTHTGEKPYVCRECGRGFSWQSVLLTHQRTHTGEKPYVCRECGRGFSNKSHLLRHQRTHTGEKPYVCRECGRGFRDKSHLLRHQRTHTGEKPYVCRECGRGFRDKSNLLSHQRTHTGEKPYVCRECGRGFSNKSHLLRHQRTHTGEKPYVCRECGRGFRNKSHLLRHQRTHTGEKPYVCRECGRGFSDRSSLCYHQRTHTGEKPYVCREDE
Sequence of JMJD3 (h) (O15054 whole entry): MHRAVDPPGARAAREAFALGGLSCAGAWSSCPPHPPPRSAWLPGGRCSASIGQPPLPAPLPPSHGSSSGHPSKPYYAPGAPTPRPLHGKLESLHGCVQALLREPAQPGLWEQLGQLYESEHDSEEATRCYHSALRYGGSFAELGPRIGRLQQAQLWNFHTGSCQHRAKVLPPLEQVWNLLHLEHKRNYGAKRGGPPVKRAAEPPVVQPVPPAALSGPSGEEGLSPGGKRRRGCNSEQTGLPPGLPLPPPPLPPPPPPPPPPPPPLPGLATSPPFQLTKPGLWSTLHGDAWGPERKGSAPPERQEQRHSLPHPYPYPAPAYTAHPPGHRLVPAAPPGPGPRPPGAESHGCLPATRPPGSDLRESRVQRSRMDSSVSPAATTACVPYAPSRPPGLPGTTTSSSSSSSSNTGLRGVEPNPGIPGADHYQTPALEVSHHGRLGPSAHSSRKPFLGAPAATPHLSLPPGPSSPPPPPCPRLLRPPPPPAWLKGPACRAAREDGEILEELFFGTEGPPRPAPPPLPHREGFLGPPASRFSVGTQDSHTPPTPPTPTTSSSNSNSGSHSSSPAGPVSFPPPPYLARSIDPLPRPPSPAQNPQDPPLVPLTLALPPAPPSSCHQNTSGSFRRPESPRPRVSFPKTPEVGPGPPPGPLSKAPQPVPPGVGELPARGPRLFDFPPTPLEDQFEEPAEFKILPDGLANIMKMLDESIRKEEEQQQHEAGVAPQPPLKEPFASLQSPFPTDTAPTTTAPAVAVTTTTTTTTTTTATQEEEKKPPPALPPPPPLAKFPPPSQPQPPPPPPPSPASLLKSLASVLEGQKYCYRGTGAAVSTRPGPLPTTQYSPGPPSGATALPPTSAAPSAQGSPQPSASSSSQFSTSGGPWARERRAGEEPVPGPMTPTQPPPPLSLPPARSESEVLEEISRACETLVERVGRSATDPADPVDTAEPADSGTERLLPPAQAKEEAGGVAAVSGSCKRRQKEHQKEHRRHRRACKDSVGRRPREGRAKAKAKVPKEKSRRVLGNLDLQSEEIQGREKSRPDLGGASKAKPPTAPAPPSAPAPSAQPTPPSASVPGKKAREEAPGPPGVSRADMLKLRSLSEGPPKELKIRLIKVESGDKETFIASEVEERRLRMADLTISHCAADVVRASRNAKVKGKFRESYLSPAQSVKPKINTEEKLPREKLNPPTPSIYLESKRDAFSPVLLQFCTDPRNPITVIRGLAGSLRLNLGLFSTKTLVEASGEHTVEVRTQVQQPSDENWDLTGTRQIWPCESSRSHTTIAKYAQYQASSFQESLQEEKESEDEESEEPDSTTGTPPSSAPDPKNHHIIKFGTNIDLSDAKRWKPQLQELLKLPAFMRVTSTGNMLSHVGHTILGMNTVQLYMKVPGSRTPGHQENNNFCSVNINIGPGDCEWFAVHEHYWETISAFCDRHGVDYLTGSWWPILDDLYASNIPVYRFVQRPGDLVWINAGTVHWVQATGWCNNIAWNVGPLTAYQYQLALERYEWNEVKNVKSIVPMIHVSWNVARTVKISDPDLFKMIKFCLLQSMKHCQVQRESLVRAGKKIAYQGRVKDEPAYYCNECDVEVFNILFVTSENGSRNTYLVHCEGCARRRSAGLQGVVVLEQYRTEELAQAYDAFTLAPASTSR
T8 sequence (P0A9P4 2-321): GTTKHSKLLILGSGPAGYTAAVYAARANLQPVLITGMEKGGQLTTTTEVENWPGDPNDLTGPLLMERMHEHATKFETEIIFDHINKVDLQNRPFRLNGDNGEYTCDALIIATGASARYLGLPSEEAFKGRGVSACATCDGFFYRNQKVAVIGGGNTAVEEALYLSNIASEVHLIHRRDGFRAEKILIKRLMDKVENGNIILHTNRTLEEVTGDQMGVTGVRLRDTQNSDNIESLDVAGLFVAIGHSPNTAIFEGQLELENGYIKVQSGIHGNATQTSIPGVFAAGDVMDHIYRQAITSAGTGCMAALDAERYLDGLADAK

## CC(C)=CCC[C@H](CO)[C@@H]1CC[C@@H](C)c2c1cc(C)c(O)c2O [Compound 1, 7,8,18-trihydroxyserrulat-14-ene]
ATAD2B (h) bromodomain
  inhibition at 10 µM: 52%
BRPF1-1 (h) bromodomain
  inhibition at 10 µM: -25%
BRDT(1) (h) bromodomain
  inhibition at 10 µM: 43%
L3MBTL1 MBT domain
  % Inhibition of Control Specific Binding: 41%
H3K27 me3
  inhibition at 10 µM: -8%
H3K36 me2
  inhibition at 10 µM: 10%
JMJD2D (h)
  inhibition at 10 µM: 36%
JMJD3 (h); 10 μM
  % Inhibition of Control Values: significant inhibitory activity
  inhibition at 10 µM: 91%
JMJD3 (h); Table 11, inhibition/concentration-response curve
  IC50: 14 µM
MYST3(h)
  inhibition at 10 µM: 18%
HDAC4 (h)
  inhibition at 10 µM: -73%
PRDM9 (h)
  inhibition at 10 µM: 9%
SUV4-20H2 (h)
  inhibition at 10 µM: 11%
[1]
  inhibition at 10 µM: 13%
Chemokine CCR1
  remaining activity at 10 µM: 33%
Deacetylase, Histone 1; assay year 2014
  % control response at 10 µM: 17%
Deacetylase, Histone 1; assay year 2015
  % control response at 10 µM: -27%
HMG-CoA Reductase
  remaining activity at 10 µM: 29%
Steroid 5alpha-Reductase
  % Control Response: 2%
Thioredoxin Reductase; 10 μM, assay year 2014
  % Control Response: inhibited the activity
Thioredoxin Reductase; [2]
  remaining activity at 10 µM: 71%
Thioredoxin Reductase; [3]
  remaining activity at 10 µM: 35%

## CC(C)=CCC[C@@H]1C(O)Oc2c(C)cc(O)c3c2[C@H]1CC[C@H]3C (stereo partly drawn) [Compound 2, 5,18-epoxyserrulat-14-en-8,18-diol]
ATAD2B (h) bromodomain
  inhibition at 10 µM: 25%
BRPF1-1 (h) bromodomain
  inhibition at 10 µM: -25%
BRDT(1) (h) bromodomain
  inhibition at 10 µM: 23%
L3MBTL1 MBT domain
  % Inhibition of Control Specific Binding: 61%
H3K27 me3
  inhibition at 10 µM: -7%
H3K36 me2
  inhibition at 10 µM: 7%
JMJD2D (h)
  inhibition at 10 µM: -17%
JMJD3 (h); 10 μM
  inhibition at 10 µM: 9%
MYST3(h)
  inhibition at 10 µM: 11%
HDAC4 (h)
  inhibition at 10 µM: -20%
PRDM9 (h)
  inhibition at 10 µM: 5%
SUV4-20H2 (h)
  inhibition at 10 µM: 20%
[1]
  inhibition at 10 µM: 11%
Chemokine CCR1
  remaining activity at 10 µM: -3%
Deacetylase, Histone 1; assay year 2014
  % control response at 10 µM: 23%
Deacetylase, Histone 1; assay year 2015
  % control response at 10 µM: -18%
HMG-CoA Reductase
  remaining activity at 10 µM: 27%
Steroid 5alpha-Reductase
  % Control Response: −6%
Thioredoxin Reductase; [2]
  remaining activity at 10 µM: 6%
Thioredoxin Reductase; [3]
  remaining activity at 10 µM: 12%

## CC(C)=CCC[C@@H]1COc2c(C)cc(O)c3c2[C@H]1CC[C@H]3C [Compound 3, 5,18-epoxy-8-hydroxyserrulat-14-ene]
ATAD2B (h) bromodomain
  inhibition at 10 µM: 28%
BRPF1-1 (h) bromodomain
  inhibition at 10 µM: -4%
BRDT(1) (h) bromodomain
  inhibition at 10 µM: 29%
L3MBTL1 MBT domain
  % Inhibition of Control Specific Binding: 59%
H3K27 me3
  inhibition at 10 µM: 0%
H3K36 me2
  inhibition at 10 µM: -8%
JMJD2D (h)
  inhibition at 10 µM: 18%
JMJD3 (h); 10 μM
  inhibition at 10 µM: 11%
MYST3(h)
  inhibition at 10 µM: 3%
HDAC4 (h)
  inhibition at 10 µM: -11%
PRDM9 (h)
  inhibition at 10 µM: 4%
SUV4-20H2 (h)
  inhibition at 10 µM: -45%
[1]
  inhibition at 10 µM: 12%
Chemokine CCR1
  remaining activity at 10 µM: -5%
Deacetylase, Histone 1; assay year 2015
  % control response at 10 µM: -26%
HMG-CoA Reductase
  remaining activity at 10 µM: 24%
Steroid 5alpha-Reductase
  % Control Response: 3%
Thioredoxin Reductase; [3]
  remaining activity at 10 µM: 9%

## Nc1ncnc2c1ncn2[C@@H]1O[C@H](CSCC[C@H](N)C(=O)O)[C@@H](O)[C@H]1O [SAH]
PRDM9 (h); read-out: Reference IC50
  IC50: 370 µM
SUV4-20H2 (h); read-out: Reference IC50
  IC50: 4.7 µM
